A short description of data set [1]: half-life by route of administration. In kind it is in vivo. Conditions: mice.
Data set [2] deals with bleomycin induced lung fibrosis. In words: Model of bleomycin-induced lung fibrosis. Conditions: female C57/Bl6 mice, intratracheal on days 18, 20, 22 and 24, lungs harvested day 26. In kind it is in vivo, mouse. The protocol: Female C57/Bl6 mice (10-14 weeks old) were anaesthetized with halothane, and bleomycin or saline was administered intratracheally (33 μg in 50 μl of saline) and lungs were harvested on day 26. TD139 was instilled into the lungs of mice on days 18, 20, 22 and 24 of bleomycin induced lung injury. Fibrosis was assessed by histological score of collagen stained lung sections and by total collagen content by Sircol assay.
Mice were treated with bleomycin (bleo) or saline (control) and bleomycin treated mice were treated with 200 mg/kg pirfenidone twice daily on days 18-24. TD139 was administered intratracheally on days 18, 20, 22 and 24. Lungs were harvested on day 26.
Histological lung inflammation and fibrosis score were carried out in Masson's trichrome stained sections. Inflammation (peribronchiolar, perivascular, and alveolar wall thickness) scored in >5 random fields at magnification×630 using the following system (peribronchiolar and perivascular, 1=no cells, 2=<20 cells, 3=20-100 cells, 4=>100 cells; alveolar wall thickness, 1=no cells, 2=2-3 cells thick, 3=4-5 cells thick, 4=>5 cells thick). The combined inflammatory score was the sum of these scores. Fibrosis score was evaluated as the area of the section positively stained for collagen (1=none, 2=<10%, 3=<50%, 4=>50%). Only fields where the majority of the field was composed of alveoli were scored. […]

The next data set concerns the target galectin-3 (Homo sapiens, UniProt P17931).
The next data set concerns β-catenin activation. Nature of the data set: TGF-β1-induced β-catenin activation in primary alveolar epithelial cells (western blot). In kind it is cell-based, mouse. Conditions: primary alveolar epithelial cells from WT mice, TGF-β1, 10 μM TD139. On the procedure:
Primary alveolar epithelial cells from WT mice were plated and treated with TGF-β1 in the presence or absence of 10 μM TD139. FIG. 1D) Cells were lysed and analyzed for active β-catenin, total β-catenin and β-actin by western blot.
Treated and control mouse type II lung alveolar epithelial cells (AECs) were extracted following a standard method. Briefly, 1 ml of 50 U/ml dispase (BD Biosciences) was administered intratracheally into perfused lungs followed by instillation of 0.5 ml of 1% low melting point agarose. The agarose within the upper airways was allowed to set on ice for 2 minutes and the lungs were placed in 4 ml 50 U/ml dispase for 45 min at room temperature. The lung lobes minus the upper airways were then dispersed in DMEM containing 50 μg/ml DNAse I (Sigma-Aldrich, UK). The cell suspension was passed through a 100 μm cell strainer and the cells washed in DMEM followed by resuspension in DMEM containing 10% FCS. The cell suspension was plated onto tissue culture plastic for 1 h to allow any contaminated fibroblasts and macrophages to adhere. Non-adherent epithelial cells were counted and cultured for 2 days on tissue culture plastic or cover-slips pre-coated with 5 μg/ml collagen (AMS Biotechnology) and 10 μg/ml fibronectin (Sigma-Aldrich), Cells were washed three times in PBS before treatment. […]
For orientation: In western blotting, separated proteins are transferred to a membrane and probed.

galectin-3, sequence (P17931 whole entry): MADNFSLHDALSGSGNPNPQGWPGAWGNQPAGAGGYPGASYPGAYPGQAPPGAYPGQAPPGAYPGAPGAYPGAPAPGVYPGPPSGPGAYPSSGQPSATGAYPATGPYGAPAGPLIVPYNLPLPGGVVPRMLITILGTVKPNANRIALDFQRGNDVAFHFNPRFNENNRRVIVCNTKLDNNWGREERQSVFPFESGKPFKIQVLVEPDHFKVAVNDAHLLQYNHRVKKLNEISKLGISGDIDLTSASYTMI

As for `OC[C@H]1O[C@@H](S[C@@H]2O[C@H](CO)[C@H](O)[C@H](n3cc(-c4cccc(F)c4)nn3)[C@H]2O)[C@H](O)[C@@H](n2cc(-c3cccc(F)c3)nn2)[C@H]1O` [TD139, Bis-{3-deoxy-3-[4-(3-fluorophenyl)-1H-1,2,3-triazol-1-yl]-β-D-galactopyranosyl}sulfane], the “half-life, pulmonary route compared with i.v. or s.c. routes” value in data set [1] is listed as “considerably longer half-life”. In data set [2], the “bleomycin induced lung fibrosis in vivo” value is listed as “blocked”. Further, the galectin-3 inhibitor result on galectin-3 is “inhibitor”. Also, the “TGF-β-induced β-catenin activation in vitro” value in the data set on β-catenin activation is recorded as “blocked”.

Values taken from patent publication US9243021B2, “Galactoside inhibitor of galectins” (University of Edinburgh, priority 2012, dated 2016).
